Tests used:
[1] = target: p38α (Homo sapiens, UniProt Q16539); assay: In vitro inhibition of p38 kinase (LANCE Ultra TR-FRET); type: biochemical
[2] = target: p38β (Homo sapiens, UniProt Q15759); assay: as above; type: biochemical
[3] = target: T1, p38γ (Homo sapiens, UniProt P53778); assay: as above; type: biochemical; conditions: read-out: Kinase in vitro IC50(nM) p38γ
T1 sequence (P53778 1-367): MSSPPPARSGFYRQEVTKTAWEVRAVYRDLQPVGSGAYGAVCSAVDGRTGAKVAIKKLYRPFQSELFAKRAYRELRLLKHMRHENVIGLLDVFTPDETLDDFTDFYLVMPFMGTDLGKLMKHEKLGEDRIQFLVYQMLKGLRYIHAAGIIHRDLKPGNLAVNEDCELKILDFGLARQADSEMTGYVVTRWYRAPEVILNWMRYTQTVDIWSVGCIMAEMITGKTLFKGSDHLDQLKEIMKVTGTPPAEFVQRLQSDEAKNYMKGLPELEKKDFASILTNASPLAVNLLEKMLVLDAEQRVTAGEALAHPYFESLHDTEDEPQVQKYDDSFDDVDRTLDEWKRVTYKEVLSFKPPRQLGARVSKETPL

[4] = Pharmacokinetic properties in rats; type: in vivo, SD rats
Procedure: Ten male SD rats, weighing 180-220 g (provided by Shanghai Xipuerbikai Laboratory Animal Co., Ltd, Certificate No.: 20130016008116). The rats were fasted for feed for 12-16 hours before the experiment but water was allowed.
Blood samples were collected from the fundus vein of rats before and at 2, 5, 15, 30, 60, 90, 120, 240, 360, 480, 600 and 1440 minutes after administration, respectively.
Blood samples were collected from the fundus vein of rats before and at 5, 15, 30, 60, 90, 120, 240, 360, 480, 600, 1440 minutes after administration respectively.
Blood samples were centrifuged at 8000 rpm for 5 minutes, and supernatant plasma was taken. To 50 μL of plasma samples was added 300 μL of acetonitrile containing internal standard (propranolol, 25 ng/mL) to precipitate the protein. After vortexing for 10 minutes and centrifuging at 6000 g and 4° C. for 10 minutes, the supernatant was taken and placed in a 96-well plate for determination of drug concentration in plasma by UPLC/MS-MS.

[5] = male, SD, plasma, rat, po 6 mg/kg

p38α, sequence (Q16539 whole entry): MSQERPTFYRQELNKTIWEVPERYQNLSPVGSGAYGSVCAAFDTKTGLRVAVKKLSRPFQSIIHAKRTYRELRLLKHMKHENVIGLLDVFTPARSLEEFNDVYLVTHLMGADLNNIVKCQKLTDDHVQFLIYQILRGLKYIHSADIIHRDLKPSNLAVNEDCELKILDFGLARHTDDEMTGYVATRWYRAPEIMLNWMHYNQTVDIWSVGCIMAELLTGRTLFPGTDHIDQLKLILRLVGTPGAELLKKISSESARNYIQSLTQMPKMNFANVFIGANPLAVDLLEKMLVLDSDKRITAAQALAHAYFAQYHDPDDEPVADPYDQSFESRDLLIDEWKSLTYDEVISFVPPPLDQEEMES
p38β, sequence (Q15759 whole entry): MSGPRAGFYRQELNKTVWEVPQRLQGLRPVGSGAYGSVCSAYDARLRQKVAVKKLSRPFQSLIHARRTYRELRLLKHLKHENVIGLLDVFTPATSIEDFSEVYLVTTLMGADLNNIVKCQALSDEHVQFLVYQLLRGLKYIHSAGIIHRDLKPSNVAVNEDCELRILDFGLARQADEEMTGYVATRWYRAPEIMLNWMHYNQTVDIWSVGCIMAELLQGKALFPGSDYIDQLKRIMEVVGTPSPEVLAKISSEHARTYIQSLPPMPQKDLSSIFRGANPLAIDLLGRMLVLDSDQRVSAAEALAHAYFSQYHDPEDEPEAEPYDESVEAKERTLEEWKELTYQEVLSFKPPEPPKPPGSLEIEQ

inhibitory activity against p38α kinase compared to the positive compound [1]: superior inhibitory activity
IC50 ([1]; read-out: Kinase in vitro IC50(nM) p38α): 9.87 nM
inhibitory activity against p38β kinase compared to the positive compound [2]: superior inhibitory activity
IC50 ([2]; read-out: Kinase in vitro IC50(nM) p38β): 47.4 nM
IC50 [3]: > 3330 nM
clearance ([4]; male, SD, plasma, rat, iv 3 mg/kg): 8.33 mL/min/kg
Vd ([4]; male, SD, plasma, rat, iv 3 mg/kg, read-out: Vss (iv)): 2.1 L/kg
Cmax [4, 5]: 994 ng/mL
MRT [4, 5]: 7.5 h
Tmax [4, 5]: 4.5 h
Thalf (iv) ([4]; rat, iv 3 mg/kg): 3.4 h
BA ([4]; rat, po 6 mg/kg vs iv 3 mg/kg): 68.9%
AUClast (po) ([4]; rat, po 6 mg/kg, 5-1440 minutes): 8857.1 (h)*(ng/mL)
clearance rate as fraction of that of the positive compound ([4]; rats): 1/3
absorption compared with the positive compound VX-745 at the same dose ([4]; rats, 6 mg/kg): significantly higher
AUC relative to that of the positive compound ([4]; rats, 6 mg/kg, 5-1440 minutes): 5.4 times
Compound: O=c1ncn2nc(Oc3ccc(F)cc3F)ccc2c1-c1c(Cl)cccc1Cl [Compound I-4, 5-(2,6-dichlorophenyl)-2-(2,4-difluorophenoxy)-6H-pyrimido[1,6-b]pyridazin-6-one]

Reference: patent US20220048915A1 (SHANGHAI PHARMACEUTICALS HOLDING CO., LTD., priority 2018, published 2022)
